Assay results published in patent US20120201935A1, “SWEETNESS ENHANCER, SWEETENER COMPOSITIONS, METHODS OF MAKING THE SAME AND CONSUMABLES CONTAINING THE SAME” (NUTRINOVA NUTRITION SPECIALTIES & FOOD INGREDIENTS GMBH, priority 2011, published 2012).
Entries after “also recorded” stand apart in the source; their conditions may differ.

Assays:
[1] = tested on: HEKα15#17 cells (control cell line without sweet receptor); test: Same calcium assay on the control cell line without sweet receptor; assay type: cell-based; details: FIG. 1 grey bars
Procedure: (§1) For measurement of human T1R2/T1R3 taste receptor dependent activity a control cell line without sweet receptor based on HEK 293 and a cell line expressing the sweet receptor hT1R2/hT1R3 based on HEK 293, respectively, are seeded into assay plates and labelled with the calcium sensitive fluorescence dye Fluo4-AM in a culture medium. The potential modulators, e.g. the test compound, are added to the control cell line and to the cell line expressing the sweet receptor hT1R2/hT1R3, respectively.
(§2) A stable cell line based on HEK293 was termed HEKα15#17 served as control for functional Gα-protein and a stable cell line HEKGα15#17R2R3b#8 C6 served as cell line expressing the sweet receptor hT1R2/hT1R3 based on HEKGα15#17.
(§3) The cells were cultured in DMEM/HG and 10% FCS Gold, 4 mM L-Glutamin, 1.3 mg/ml Geneticin (HEKGα15#17) or the same medium additionally containing 6 μg/ml Blasticidin (HEKGα15#17R2R3b#8 C6). The medium for the assay was DMEM/HG (high glucose, 4.5 g/l glucose, Life Technologies) and 10% FCS Gold, 4 mM L-Glutamin (HEKGα15#17) or DMEM/LG (low glucose, 1 g/l glucose; Life Technologies) and 10% FCS Gold (HEKGα15#17R2R3b#8C6), respectively. 1.3 Evaluation of the sweet receptor modulating activity of rosmarinic acid
In order to evaluate the sweet receptor modulating activity of rosmarinic acid, rosmarinic acid was added to the cultures in a concentration of 25 μM in a volume of 50 μl. Controls were KH-buffer (Krebs HEPES-buffer: 118 mM NaCl, 4.7 mM KCl, 1.2 mM MgSO4, 1.2 mM KH2PO4, 4.2 mM NaHCO3, 1.3 mM CaCl2, 10 mM Hepes, pH 7.4) either without or with sweetness enhancer.
Further controls for function of G-protein and receptor were isoproterenol Sigma Aldrich), ionomycin (1 μM, Calbiochem) and ATP (1 μM, Applichem).
For measurement of human T1R2/T1R3 taste receptor dependent activity, on day 1 of the test procedure the HEKα15#17 cells (control cell line without sweet receptor) and the HEKGα15#17R2R3b#8 C6 cells (cell line expressing the sweet receptor hT1R2/hT1R3), respectively, were transferred to low-glucose medium.
On day 2 the cells were seeded into assay plates at a density of 25.000 cells/well. Assay plates for fluorescence measurement (black clear bottom 96-cavity plates, Greiner Bio-One) were coated with poly-D-lysine. For direct comparison both cell lines (control cell line without sweet receptor and cell line expressing the sweet receptor hT1R2/hT1R3) were seeded into different cavities of the same assay plate. The plate was placed into the incubator for 48 hours at 37° C., 5% CO2, 100% relative humidity.
On day 4 the calcium assay was performed. For this assay, the cells were marked with Fluo4-AM in medium and KH-buffer. To each cavity 100 μl KH-Puffer/250 μM sulfinpyrazone/4 μM Fluo4-AM were added gently to 100 μl medium (final concentration of Fluo4-AM=2 μM, stock solution of Fluo4-AM 1 mM in DMSO, excitation at 485 nm, emission at 520 nm, Fisher Scientific, 58239 Schwerte, Germany).
The plate was placed into the incubator for 1 hour. In the mean time the test substances (“ligands”) were prepared in a separate plate (5 times concentrated, 150 μl/cavity, and then automatically 50 μl/cavity were transferred into the screening cell plate by pipetting robot (FLEX-station, Molecular Devices, Sunnyvale, Calif.).
The culture medium was carefully removed and 200 μl KH-buffer/250 μM sulfinpyrazone per cavity was added slowly. Cells were left in the FLEX-station for 20 minutes for adaptation, followed by measurement at 37° C.
In the bar diagram the grey bars (control—without hT1R2/hT1R3) indicate the measured Fluo4-AM fluorescence increase of the respective test compound added to the control cell line, the black bars (assay—with hT1R2/hT1R3) indicate the measured Fluo4-AM fluorescence increase of the respective test compound added to the cell line expressing the sweet receptor hT1R2/hT1R3.

[2] = biological target: T1, human taste receptor T1R2/T1R3 (Homo sapiens, UniProt Q7RTX0+Q8TE23); test: Recombinant human taste receptor T1R2/T1R3 dependent cell based calcium assay (Fluo4-AM), cell line expressing the sweet receptor
T1 construct: expressed in transfected cells; host or cells: HEK293 stably expressing mouse G-alpha-15 (HEKGα15#17R2R3b#8 C6)
T1 sequence (Q8TE23 20-839): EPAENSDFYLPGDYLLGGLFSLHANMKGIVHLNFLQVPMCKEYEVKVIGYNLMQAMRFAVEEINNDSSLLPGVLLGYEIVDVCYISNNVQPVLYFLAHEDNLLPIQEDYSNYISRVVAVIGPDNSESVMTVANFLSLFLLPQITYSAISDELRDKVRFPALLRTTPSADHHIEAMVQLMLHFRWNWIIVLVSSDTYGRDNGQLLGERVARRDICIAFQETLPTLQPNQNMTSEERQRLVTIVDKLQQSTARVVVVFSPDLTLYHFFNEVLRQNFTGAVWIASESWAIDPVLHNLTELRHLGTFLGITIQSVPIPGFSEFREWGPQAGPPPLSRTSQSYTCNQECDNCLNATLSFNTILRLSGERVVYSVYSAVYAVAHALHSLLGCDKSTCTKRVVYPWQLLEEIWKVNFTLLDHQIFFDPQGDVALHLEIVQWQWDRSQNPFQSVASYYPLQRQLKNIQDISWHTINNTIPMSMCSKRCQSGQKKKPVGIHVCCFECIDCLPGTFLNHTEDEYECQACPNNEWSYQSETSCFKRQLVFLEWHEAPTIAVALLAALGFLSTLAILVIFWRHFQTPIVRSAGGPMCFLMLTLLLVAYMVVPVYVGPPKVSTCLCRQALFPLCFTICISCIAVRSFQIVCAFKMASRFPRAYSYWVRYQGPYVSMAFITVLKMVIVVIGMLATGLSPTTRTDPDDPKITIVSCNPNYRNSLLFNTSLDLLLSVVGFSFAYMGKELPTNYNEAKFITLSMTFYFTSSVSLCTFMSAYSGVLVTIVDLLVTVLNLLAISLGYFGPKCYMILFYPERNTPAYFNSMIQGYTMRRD
T1 sequence (Q7RTX0 21-852): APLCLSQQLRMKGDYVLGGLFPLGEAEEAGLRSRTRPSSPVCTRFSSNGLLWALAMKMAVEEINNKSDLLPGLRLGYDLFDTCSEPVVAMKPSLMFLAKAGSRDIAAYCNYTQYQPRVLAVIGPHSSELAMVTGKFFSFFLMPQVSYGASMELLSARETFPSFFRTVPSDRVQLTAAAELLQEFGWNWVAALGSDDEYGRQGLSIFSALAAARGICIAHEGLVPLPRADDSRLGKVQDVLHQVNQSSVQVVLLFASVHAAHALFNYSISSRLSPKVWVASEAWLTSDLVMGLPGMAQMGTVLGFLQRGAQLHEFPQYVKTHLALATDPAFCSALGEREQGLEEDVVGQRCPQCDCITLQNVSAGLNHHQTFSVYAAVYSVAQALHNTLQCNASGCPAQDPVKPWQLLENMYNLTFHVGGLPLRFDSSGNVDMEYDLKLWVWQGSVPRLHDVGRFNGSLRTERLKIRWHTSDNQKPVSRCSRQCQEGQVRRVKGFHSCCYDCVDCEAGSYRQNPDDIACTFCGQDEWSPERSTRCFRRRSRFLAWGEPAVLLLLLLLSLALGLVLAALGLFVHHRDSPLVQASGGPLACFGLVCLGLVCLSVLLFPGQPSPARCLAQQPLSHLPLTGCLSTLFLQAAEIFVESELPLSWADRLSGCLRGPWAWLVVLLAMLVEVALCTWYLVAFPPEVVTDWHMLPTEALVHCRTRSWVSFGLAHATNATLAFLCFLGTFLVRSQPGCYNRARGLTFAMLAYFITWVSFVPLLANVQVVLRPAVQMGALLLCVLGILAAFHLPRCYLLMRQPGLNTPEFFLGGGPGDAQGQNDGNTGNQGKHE
Procedure: as §1, §2
as §3, with “1.3 Evaluation of the sweet receptor modulating activity of rosmarinic acid” left out
On day 2 the cells were seeded into assay plates at a density of 25.000 cells/well. Assay plates for fluorescence measurement (black clear bottom 96-cavity plates, Greiner Bio-One) were coated with poly-D-lysine. […]

[3] = Taste and spit assay with a panel of trained sensory evaluators; assay type: in vivo, human; details: 5 panelists
Text: The taste of a sample of a compound, e.g. rosmarinic acid, with regard to sweetness and/or sweetness enhancing properties, in other embodiments, may be assessed in vivo by using a panel of trained sensory evaluators experienced in the sweet taste estimation procedure, e.g. in the taste and spit assay as described e.g. in Example 2.
(§4) In these cases, panelists are asked to take a sample of the liquid to be assessed (test substance, e.g. rosmarinic acid) into the mouth and after some time allowed for taste perception to spit the sample out completely. Subsequently, the panelists are asked to rinse their mouth well with water or black tea to reduce any potential carry over effects. The tasting of a sample can be repeated if required.
In a first descriptive test (qualitative assessment for sweetness) the panelists are asked to taste the quality of single samples (maximum 3 subsequent samples). The individuals of the taste panel are asked to answer the following questions with regard to the quality of taste: 1) does the sample taste sweet?. 2) is there another taste detectable (bitter, sour, salty, umami)?. 3) is there an off- or aftertaste?. 4) is there anything else remarkable about the perception of the sample?
In the next step (assessment of sweetness enhancing, e.g. fructose enhancing, features) the panelists are asked to answer questions in a pairwise comparison test to determine the enhancement of sweet taste of the test substance with fructose relative to fructose only. Again the panelists are given samples. Two samples are prepared for direct comparison regarding sweetness. One sample contains fructose in a solvent and the other sample additionally contains the test substance. Designation of the samples with A and B is randomized and is decoded after the taste procedure. The questions to be answered are: 1) does one sample taste sweeter than the other?, 2) if so, which one?, 3) are there any other differences in the taste between the two samples? The result of the taste and spit assay is a qualitative evaluation of the differences between the two samples.
The taste of a sample of rosmarinic acid with regard to sweetness and fructose enhancing features was assessed by using a panel of trained sensory evaluators experienced in the sweet taste estimation procedure. 5 individuals were asked to taste the quality of single samples of 10 ml volume.
as §4, with “Panelists were” for “In these cases, panelists are”, “(20 μM test substance” for “(test substance, e.g.”, “acid in 0.5% ethanol)” for “acid)”, “were” for “are”, “could” for “can”, “required. […]” for “required.”

[4] = test compound without added enhancer/fructose, sodium cyclamate 30 mM, ATP 1 μM, ionomycin 1 μM, fructose 20 mM, rosmarinic acid 25 μM
[5] = 20 μM with 4% fructose in 0.5% ethanol

In the case of `C[C@H](CCC(=O)O)C[C@H](C)C[C@H](C)C(=O)/C=C(\O)[C@H](C)C[C@H](C)C/C=C/[C@@H](C)[C@@H](O)[C@@H](C)[C@@H](O)C[C@@H]1CC[C@@](C)([C@H]2CC[C@@](C)([C@@H](C)O)O2)O1` [ionomycin], the “Fluo4-AM fluorescence increase (activation) of the control cell line” value (“Fluo4-AM fluorescence increase” below) [1, 4] is reported as “activate”.
In the case of `CC(C)NCC(O)c1ccc(O)c(O)c1` (stereo not shown) [isoproterenol], the “Fluo4-AM fluorescence increase” value [1, 4] is reported as “activate”.
In the case of `Nc1ncnc2c1ncn2[C@@H]1O[C@H](COP(=O)(O)OP(=O)(O)OP(=O)(O)O)[C@@H](O)[C@H]1O` [ATP], the “Fluo4-AM fluorescence increase” value [1, 4] is reported as “activate”.
For `O=C(/C=C/c1ccc(O)c(O)c1)O[C@H](Cc1ccc(O)c(O)c1)C(=O)O` [rosmarinic acid], the “Time response in the cell assay” value ([2]; measured over ca. 1.5 minutes (86 seconds), FIG. 2) was “selective stimulation of receptor carrying cells”, the “Fructose enhancing activity in the cell based in vitro assay” value ([2]; rosmarinic acid in the presence of fructose) was “acting as a fructose enhancer; also recorded: enhances the activity of fructose; also recorded: acts as a fructose enhancer” and the “Fluo4-AM fluorescence increase” value ([1]; rosmarinic acid 25 μM in the presence of fructose (20 mM)) was “does not activate”. The “Fluo4-AM fluorescence increase” value [1, 4] was “does not activate”, the “Off-taste or other taste (Phase I qualitative assessment)” value ([3]; 20 μM in 0.5% ethanol, 10 ml) was “No off-taste or any other taste than sweetness was detected” and the “Taste quality of the single sample (Phase I qualitative assessment)” value ([3]; 20 μM in 0.5% ethanol, 10 ml, ambient temperature) was “no characteristic intrinsic taste”. For the same compound, the “Panelists identifying the sample with 4% fructose plus test substance as sweeter than 4% fructose only (Phase II pairwise comparison)” value [3, 5] was “four” and the “Panelists tasting no difference between the two samples (Phase II pairwise comparison)” value [3, 5] was “One”.
With `O=S(=O)([O-])NC1CCCCC1.[Na+]` [sodium cyclamate] the “Fluo4-AM fluorescence increase” value [1, 4] was “does not activate”.
With `O=C(CO)[C@@H](O)[C@H](O)[C@H](O)CO` [fructose] the “Fluo4-AM fluorescence increase” value [1, 4] was “does neither activate”.
